Measured values as given in US20160354443A1, “Replacement Therapy for Natriuretic Peptide Deficiencies” (priority 2014, published 2016).
Positions of bridges follow the written chain, without caps; N, C: chain ends. Non-standard residues stand in square brackets, D forms with d. Residues, ends and D or L forms follow the SMILES beside them. *: point of attachment. X1 = N=C(N)NCCC[C@H]1C(=O)N[C@@H](C(N)=O)CN1*; dNle = CCCC[C@@H](N)C(=O)O; Heptanoyl = CCCCCCC(=O)*

Columns and labels:
[1] = Potter et al. 2009; cited from earlier work
rat NPRA = target: T1, rat NPRA (Rattus norvegicus, UniProt P18910); assay: cGMP generation in HEK cells expressing rat NPRA; assay type: cell-based; details: mean ± SD
T1 construct: expressed in transfected cells; host or cells: HEK cell line
T1 sequence (P18910 29-1057): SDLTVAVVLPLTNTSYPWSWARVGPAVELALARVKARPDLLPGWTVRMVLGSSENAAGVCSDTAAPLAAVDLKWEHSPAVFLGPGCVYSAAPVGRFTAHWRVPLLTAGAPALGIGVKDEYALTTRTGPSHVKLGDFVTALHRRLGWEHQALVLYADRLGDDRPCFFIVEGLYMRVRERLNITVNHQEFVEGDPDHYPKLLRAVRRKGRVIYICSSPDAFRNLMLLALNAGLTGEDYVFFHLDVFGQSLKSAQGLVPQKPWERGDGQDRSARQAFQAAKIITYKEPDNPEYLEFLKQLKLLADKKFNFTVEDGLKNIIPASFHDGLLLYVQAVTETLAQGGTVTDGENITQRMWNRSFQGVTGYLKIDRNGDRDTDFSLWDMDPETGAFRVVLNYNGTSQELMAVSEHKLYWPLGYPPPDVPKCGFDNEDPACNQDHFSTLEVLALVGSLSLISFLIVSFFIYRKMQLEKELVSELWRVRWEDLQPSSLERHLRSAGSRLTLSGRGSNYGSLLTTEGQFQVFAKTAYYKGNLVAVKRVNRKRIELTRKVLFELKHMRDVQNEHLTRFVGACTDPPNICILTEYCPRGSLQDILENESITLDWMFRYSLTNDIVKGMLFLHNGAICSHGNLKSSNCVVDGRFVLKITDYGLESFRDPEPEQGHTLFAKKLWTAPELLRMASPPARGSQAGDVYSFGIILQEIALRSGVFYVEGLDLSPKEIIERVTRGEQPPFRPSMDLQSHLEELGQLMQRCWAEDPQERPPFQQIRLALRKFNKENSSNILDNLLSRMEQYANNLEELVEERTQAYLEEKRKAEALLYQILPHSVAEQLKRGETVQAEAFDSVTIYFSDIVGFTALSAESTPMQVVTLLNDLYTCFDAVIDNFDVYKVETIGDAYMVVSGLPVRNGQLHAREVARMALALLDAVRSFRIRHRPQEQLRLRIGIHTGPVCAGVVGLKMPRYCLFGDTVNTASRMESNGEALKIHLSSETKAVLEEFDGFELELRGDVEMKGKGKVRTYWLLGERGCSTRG

human NPRA = target: T2, human NPRA (Homo sapiens, UniProt P16066); assay: cGMP generation in HEK cells expressing human NPRA; assay type: cell-based; details: mean ± SD
T2 sequence (P16066 33-1061): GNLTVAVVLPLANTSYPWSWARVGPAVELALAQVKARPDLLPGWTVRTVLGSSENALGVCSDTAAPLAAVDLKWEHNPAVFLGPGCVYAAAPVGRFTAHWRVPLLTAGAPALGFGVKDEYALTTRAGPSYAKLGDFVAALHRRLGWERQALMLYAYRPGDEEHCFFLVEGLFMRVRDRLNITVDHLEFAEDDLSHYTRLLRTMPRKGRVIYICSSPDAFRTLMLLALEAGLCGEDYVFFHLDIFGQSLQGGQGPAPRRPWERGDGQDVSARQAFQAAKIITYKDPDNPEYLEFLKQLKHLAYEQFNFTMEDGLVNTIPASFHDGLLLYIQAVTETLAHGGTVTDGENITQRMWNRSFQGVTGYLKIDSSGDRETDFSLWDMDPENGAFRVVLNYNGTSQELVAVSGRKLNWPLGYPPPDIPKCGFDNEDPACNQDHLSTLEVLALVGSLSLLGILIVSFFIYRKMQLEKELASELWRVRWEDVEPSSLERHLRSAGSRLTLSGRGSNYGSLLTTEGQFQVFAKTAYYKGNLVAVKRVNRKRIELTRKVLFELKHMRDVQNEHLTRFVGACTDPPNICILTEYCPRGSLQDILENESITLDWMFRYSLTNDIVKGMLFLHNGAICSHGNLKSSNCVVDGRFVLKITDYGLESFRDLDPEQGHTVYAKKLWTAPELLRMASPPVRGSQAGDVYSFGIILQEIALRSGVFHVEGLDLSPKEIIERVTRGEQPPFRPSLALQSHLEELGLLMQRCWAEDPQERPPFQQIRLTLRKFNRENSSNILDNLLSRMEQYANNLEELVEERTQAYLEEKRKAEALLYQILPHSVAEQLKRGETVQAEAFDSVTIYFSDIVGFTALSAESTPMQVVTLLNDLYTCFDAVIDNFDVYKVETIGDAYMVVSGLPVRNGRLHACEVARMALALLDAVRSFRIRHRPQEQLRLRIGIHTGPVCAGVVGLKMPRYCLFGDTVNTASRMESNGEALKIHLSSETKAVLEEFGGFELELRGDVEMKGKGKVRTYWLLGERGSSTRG
Protocol: Functional evaluation of natriuretic peptide mimetics was performed by measuring the accumulation of intracellular cGMP in HEK-293 cells that express recombinant hNPR-A. HEK-NPRA cells were harvested by washing and centrifugation in Cell Dissociation Buffer (Gibco, Life Technologies). Pelleted cells were resuspended in Hank's Balanced Salt Solution (HBSS) containing 10 mM Hepes (pH 7.4), 5 mM MgCl2, 200 mM L-glutamine, 1 mM 1,10-phenanthroline and BSA (0.5 mg/mL). Following centrifugation, cells were resuspended in the above buffer supplemented with 0.5 mM 3-isobutyl-1-methylxanthine (IBMX). […] The reaction was terminated by lysis of the cells with temperature shock. […] Accumulation of cGMP was measured using the cGMP Flashplate RIA (Perkin-Elmer). Data analysis and EC50 values were determined by using nonlinear regression analysis with GraphPad Prism® software.

[2] = Human clinical trial, subcutaneous formulation: half life; details: in vivo, sc, subcutaneously administered formulation
Protocol: In a human clinical trial of a subcutaneously administered formulation in which the mimetic of formula IV was the active pharmaceutical ingredient, the half life of the mimetic of formula IV was determined to be approximately 3 hours. The mimetic of formula IV lead to a mean peak increase in plasma cGMP concentration of 1.7 ng/mL at a dose of 0.3 μg/kg of the mimetic of formula IV as a single, subcutaneous injection.

hNPRB (human NPRB) = target: T3, hNPRB (human NPRB) (Homo sapiens, UniProt P20594); assay: NPRB functional assay (cGMP generation) in HEK cell line; assay type: cell-based; details: HEK293, mean ± SD, read-out: hNPRB Function (cGMP) Emax (%)
T3 construct: expressed in transfected cells; host or cells: HEK cell line
T3 sequence (P20594 23-1047): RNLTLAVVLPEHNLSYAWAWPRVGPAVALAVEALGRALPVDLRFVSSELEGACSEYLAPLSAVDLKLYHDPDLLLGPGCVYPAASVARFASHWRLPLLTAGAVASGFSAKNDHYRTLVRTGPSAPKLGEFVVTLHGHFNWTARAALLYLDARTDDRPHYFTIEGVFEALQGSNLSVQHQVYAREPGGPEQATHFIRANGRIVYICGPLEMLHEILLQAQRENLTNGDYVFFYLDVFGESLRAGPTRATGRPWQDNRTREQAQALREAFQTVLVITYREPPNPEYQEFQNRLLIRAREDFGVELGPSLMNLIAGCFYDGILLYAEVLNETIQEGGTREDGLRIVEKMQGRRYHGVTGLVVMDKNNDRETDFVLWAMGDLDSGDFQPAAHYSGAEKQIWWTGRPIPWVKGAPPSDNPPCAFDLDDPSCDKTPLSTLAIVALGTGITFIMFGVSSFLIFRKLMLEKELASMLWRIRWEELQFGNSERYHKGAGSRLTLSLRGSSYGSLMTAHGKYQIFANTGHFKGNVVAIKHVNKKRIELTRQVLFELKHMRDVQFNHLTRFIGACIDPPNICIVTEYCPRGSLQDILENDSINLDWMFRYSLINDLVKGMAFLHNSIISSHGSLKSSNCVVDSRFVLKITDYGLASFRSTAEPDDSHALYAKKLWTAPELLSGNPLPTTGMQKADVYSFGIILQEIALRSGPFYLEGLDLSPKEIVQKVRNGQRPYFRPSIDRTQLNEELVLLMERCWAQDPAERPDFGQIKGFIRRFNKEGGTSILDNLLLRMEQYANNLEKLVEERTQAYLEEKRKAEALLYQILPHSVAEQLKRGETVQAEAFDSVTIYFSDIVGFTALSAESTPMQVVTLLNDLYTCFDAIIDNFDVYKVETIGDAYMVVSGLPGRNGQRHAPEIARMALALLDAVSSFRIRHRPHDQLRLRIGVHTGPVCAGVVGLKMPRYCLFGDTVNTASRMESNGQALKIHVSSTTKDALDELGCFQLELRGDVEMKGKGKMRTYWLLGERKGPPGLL

[3] = Safety study in healthy volunteers: pharmacodynamic parameters (plasma cGMP); assay type: in vivo, human; details: human, in vivo, mean ± SD, read-out: t½ (converted)
Protocol: (§1) In a safety study, the mimetic of formula IV was administered to healthy volunteers. Doses of 0.1, 0.3, 0.7 and 1.0 μg/kg of the mimetic of formula IV were administered.
(§2) Kel is the apparent terminal elimination rate constant, calculated by linear regression of the terminal linear portion of the log concentration versus the time curve. The plasma cGMP concentrations returned to baseline levels by approximately 8 hours after dosing following 0.7 μg/kg and 1.0 μg/kg of the mimetic of formula IV.

plasma cGMP = assay: as above; assay type: in vivo, human; details: mean ± SD
Protocol: as §1, §2

Row | Structure (SMILES) | reported human plasma half-life [1] | Function (cGMP) Emax (% of ANP response) (rat NPRA) | Emax (human NPRA; HEK293, hNPRA, read-out: hNPRA Function (cGMP) Emax (%)) [%] | Function (cGMP) Emax (% of ANP response) (human NPRA; human NPRA) | half-life [2] [h] | Emax (hNPRB (human NPRB)) [%] | half-life ([3]; 0.7 ug/kg) [h] | half-life ([3]; 1 ug/kg) [h] | Kel (apparent terminal elimination rate constant) (plasma cGMP; dose 0.7 μg/kg) [h⁻¹] | Kel (apparent terminal elimination rate constant) (plasma cGMP; dose 1.0 μg/kg) [h⁻¹]
1 | CC[C@H](C)[C@@H]1NC(=O)[C@H](CCCNC(=N)N)NC(=O)[C@H](CC(=O)O)NC(=O)[C@H](CC(C)C)NC(=O)[C@H](CCCCN)NC(=O)[C@H](CC(C)C)NC(=O)CNC(=O)[C@H](Cc2ccccc2)NC(=O)[C@@H](NC(=O)CNC(=O)[C@H](CCCCN)NC(=O)[C@H](CO)NC(=O)[C@H](CC(C)C)NC(=O)CN)CSSC[C@@H](C(=O)O)NC(=O)CNC(=O)[C@H](CC(C)C)NC(=O)CNC(=O)[C@H](CO)NC(=O)[C@H](CCSC)NC(=O)[C@H](CO)NC(=O)CNC1=O [hCNP] | about 2 minutes | – | – | – | – | – | – | – | – | –
2 | CCCCCCC(=O)N[C@H]1CSSC[C@@H](C(=O)N[C@@H](Cc2ccc(O)cc2)C(=O)N2C[C@H](C(N)=O)NC(=O)[C@@H]2CCCNC(=N)N)NC(=O)[C@H](CO)NC(=O)[C@H]([C@@H](C)CC)NC(=O)[C@H](CCCNC(=N)N)NC(=O)[C@H](CC(=O)O)NC(=O)[C@@H](CCCC)NC(=O)[C@H](CCCNC(=N)N)NC(=O)CNC(=O)[C@@H](C)NC(=O)[C@H](Cc2ccccc2)NC(=O)[C@H](Cc2c[nH]cn2)NC1=O [mimetic of formula IV] (Heptanoyl-CHF[dA]GR[dNle]DRISCY-X1; disulfide 1-12) | – | 98 ± 7 % of ANP response | 94 ± 8 | 94 ± 8 % of ANP response | ~3 | 1 ± 1 | 3.03 ± 0.345 | 2.98 ± 3.61 | 0.231 ± 0.025 | 1.05 ± 1.22
